These results are taken from patent publication US20130072506A1, “6,8-DISUBSTITUTED PURINE COMPOSITIONS” (priority 2011, published 2013).

The subject of assay [1] is Human diploid fibroblast BJ. Description: In vitro cytotoxic activity (metabolisation of MTT). The following applies: 72 hours, BJ passage 18-22. The class given is cell-based. The protocol:
In vitro Cytotoxic Activity (metabolisation of Mtt). MTT ([…]) assay is a standard colorimetric assay for evaluation of cytotoxicity. Mitochondrial dehydrogenase activity converts yellow MTT into violet formazan which is measured by means of spectrometry.
Human diploid fibroblast BJ (passage 18-22) were seeded into 96-well plate (5.000 cells per well). After 6 hours cultivation medium (DMEM with 5 g/l glucose, 2 mM glutamine, 100 U/ml penicillin, 100 mmg/ml streptomycin, 10% fetal calf serum and sodium bicarbonate) was replaced with the cultivation medium containing test compounds in concentration range of 0-200 μM. Highest concentration was adjusted if the solubility of the compound was limiting. Every concentration was tested in pentaplicate. MTT was added to the cells after 72 hours incubation (final concentration 0.5 mg/ml) and incubation continued for another 3 hours. MTT was solubilised by DMSO and absorbance at 570 nm was measured. Growth inhibition (GI) was estimated using the following equitation: GI=(mean A drug exposed wells−mean Ablank/mean Acontrol wells−mean Ablank)×100%. The GI20 value, the drug concentration causing 20% decrease in mitochondrial dehydrogenase activity, was calculated from the obtained dose response curves.

Assay [2] deals with T-lymphoblastic leukemia cell line CEM. Briefly: In vitro cytotoxic activity (metabolisation of Calcein AM). The following applies: CEM cells, 72 hours incubation, called GI50, read-out: Cell line tested/IC50 (μmol/L) CEM. The assay is classed as cell-based, human. An excerpt: (§1) In vitro Cytotoxic Activity (Metabolisation of Calcein AM). Because toxic compounds negatively influence metabolic processes of cells, many standard cytotoxicity assays are based on measurement of metabolisation rate of various artificial substrates. Resulting product is then quantified, for example, by means of spectrometry. The assays can be easily modified for use in 96-well plates. For evaluation of cytotoxicity of the 6,8-disubstituted purines of this invention, a microtiter assay based on quantification of metabolisation of Calcein AM was used. The assay is widely used in drug screening programs and in chemosensitivity testing. In live cells, Calcein AM is enzymatically hydrolysed and accumulation of resulting calcein is manifested by green fluorescence.
(§2) The following human cell lines were used for routine screening of the compounds: normal diploid fibroblasts BJ, T-lymphoblastic leukemia cell line CEM, promyelocytic leukemia cell line HL-60, erytroid leukemia cell line K-562, breast carcinoma cell line MCF-7, osteosarcoma cell line HOS and melanoma cell line G-361. The cells were maintained in Nunc/Corning 80 cm^2 plastic tissue culture flasks and cultured in cell culture medium (DMEM with 5 g/l glucose, 2 mM glutamine, […] penicillin, 100 mmg/ml streptomycin, 10% fetal calf serum and sodium bicarbonate).
(§3) The cell suspensions were prepared and diluted according to the particular cell type and the expected target cell density (2.500-30.000 cells per well based on cell growth characteristics) and pipetted (80 μl) into 96-well plates. Inoculates were allowed a pre-incubation period of 24 hours at 37° C. and 5% CO2 for stabilization. Tested compound was added in total volume of […] of water at time zero. Usually, test compound was evaluated at six 3-fold dilutions. In routine testing, the highest concentration tested was 100 μM, but it could have been adjusted because of limited solubility of a compound. All drug concentrations were tested in triplicates.
(§4) Incubations of cells with the test compounds lasted for 72 hours at 37° C., in 5% CO2 atmosphere and 100% humidity. At the end of incubation period Calcein AM in PBS was added into final concentration of 1 μg/ml. After another 1 hour of incubation fluorescence (FD) was measured with the Labsystem FIA Reader Fluoroscan Ascent (UK). Growth inhibition (GI) was estimated using the following equitation: GI=(mean FDdrug exposed wells−mean FDblank)/(mean FDcontrol wells−mean FDblank)×100%. The GI50 value, the drug concentration causing 50% reduction of Calcein AM conversion, was calculated from the obtained dose response curves.

Assay [3] deals with osteosarcoma cell line HOS. The description is as above. The class given is cell-based, human. The following applies: HOS cells, 72 hours incubation, called GI50, read-out: Cell line tested/IC50 (μmol/L) HOS.
Excerpt: as §1, §2, §3, §4

Assay [4] relates to normal diploid fibroblasts BJ. Described as above. The class given is cell-based, human. The following applies: BJ cells, 72 hours incubation, called GI50, read-out: Cell line tested/IC50 (μmol/L) BJ.
Excerpt: as §1, §2, §3, §4

The subject of a further assay is melanoma cell line G-361. The description is as above. To be noted: G-361 cells, 72 hours incubation, called GI50, read-out: Cell line tested/IC50 (μmol/L) G-361. The assay is classed as cell-based, human.
Excerpt: as §1, §2, §3, §4

Assay [5] relates to breast carcinoma cell line MCF-7. The description is as above. The class given is cell-based, human. To be noted: MCF7 cells, 72 hours incubation, called GI50, read-out: Cell line tested/IC50 (μmol/L) MCF7.
Excerpt: as §1, §2, §3, §4

The test system of assay [6] is erytroid leukemia cell line K-562. Described as above. The class given is cell-based, human. The following applies: 72 hours incubation, called GI50, read-out: Cell line tested/IC50 (μmol/L) K-562.
Excerpt: as §1, §2, §3, §4

Setting [7] is: Homo sapiens, K562, K-562 cells.

Read-outs that look alike come from different tables or passages of the source.

For `Oc1cccc(CNc2ncnc3nc(Cl)[nH]c23)c1O` [Compound 46], the GI20 in assay [1] is more than 200 µmol/L. For the same compound, the IC50 in assay [2] is more than 100 µmol/L; in assay [3], more than 100 µmol/L; in assay [4], more than 100 µmol/L; with melanoma cell line G-361, more than 100 µmol/L; in assay [5], more than 100 µmol/L; in assay [6] (K-562 cells) it was more than 50 µmol/L.

`Oc1cc(O)cc(CNc2ncnc3nc(Cl)[nH]c23)c1` [Compound 47] registered a GI20 in assay [1] of more than 200 µmol/L. Further, the IC50 (in assay [2]; in assay [3]; in assay [4]; in the assay with melanoma cell line G-361; in assay [5]; in assay [6] (K-562 cells)) was more than 100 µmol/L each time.

For `CC(=CCNc1ncnc2nc(N(C)C)[nH]c12)CO` [Compound 63], the GI20 in assay [1] was more than 100 µmol/L. Also, the IC50 (in assay [2]; in assay [3]; in assay [4]; with melanoma cell line G-361; in assay [5]; in assay [6] (K-562 cells)) was more than 50 µmol/L each time.

As to `CC(CO)CCNc1ncnc2nc(N(C)C)[nH]c12` (stereo not drawn) [Compound 64], the GI20 in assay [1] was more than 100 µmol/L. Moreover, the IC50 (in assay [2]; in assay [3]; in assay [4]; with melanoma cell line G-361; in assay [5]; in assay [6] (K-562 cells)) was more than 50 µmol/L in each case.

`Cc1cccc(Nc2ncnc3nc(N(C)C)[nH]c23)c1` [Compound 81]: the GI20 in assay [1] was more than 100 µmol/L. Further, the IC50 (in assay [2]; in assay [3]; in assay [4]; in the assay on melanoma cell line G-361; in assay [5]; in assay [6] (K-562 cells)) was more than 50 µmol/L each time.

In the case of `CC(=CCNc1ncnc2nc(N)[nH]c12)CO` [Compound 84], the GI20 in assay [1] was more than 100 µmol/L. The IC50 (in assay [2]; in assay [3]; in assay [4]; in the assay on melanoma cell line G-361; in assay [5]; in assay [6] (K-562 cells)) was more than 50 µmol/L throughout.

In assay [1], `C/C(=C\CNc1ncnc2nc(N)[nH]c12)CO` [Compound 85, 6-(E)-(4-hydroxy-3-methylbut-2-en-1-ylamino)-8-aminopurine] registered a GI20 of more than 100 µmol/L. Moreover, the IC50 in assay [2] (Homo sapiens, CCRF-CEM) was more than 50 µmol/L; in assay [3] (Homo sapiens), more than 50 µmol/L; in assay [4] (Homo sapiens), more than 50 µmol/L; in the assay on melanoma cell line G-361 (Homo sapiens), more than 50 µmol/L; in assay [5] (Homo sapiens), more than 50 µmol/L; in assay [6] (setting [7]) it was more than 50 µmol/L.

With `CC(CO)CCNc1ncnc2nc(N)[nH]c12` (stereo not drawn) [Compound 86, 6-(4-hydroxy-3-methylbutylamino)-8-aminopurine], the GI20 in assay [1] is more than 100 µmol/L. Besides, the IC50 is more than 50 µmol/L in assay [2] (Homo sapiens, CCRF-CEM); more than 50 µmol/L in assay [3] (Homo sapiens); more than 50 µmol/L in assay [4] (Homo sapiens); more than 50 µmol/L with melanoma cell line G-361 (Homo sapiens); more than 50 µmol/L in assay [5] (Homo sapiens); more than 50 µmol/L in assay [6] (setting [7]).

Compound `Nc1nc2ncnc(NCc3ccccc3F)c2[nH]1` [Compound 88] had a GI20 in assay [1] of more than 100 µmol/L. The IC50 (in assay [2]; in assay [3]; in assay [4]; with melanoma cell line G-361; in assay [5]; in assay [6] (K-562 cells)) was more than 50 µmol/L in each case.

In the case of `Nc1nc2ncnc(NCc3cccc(F)c3)c2[nH]1` [Compound 89], in assay [1], the GI20 was more than 100 µmol/L. The IC50 (in assay [2]; in assay [3]; in assay [4]; in the assay with melanoma cell line G-361; in assay [5]; in assay [6] (K-562 cells)) was more than 50 µmol/L in each case.

`Nc1nc2ncnc(NCc3ccc(F)cc3)c2[nH]1` [Compound 90] gave a GI20 in assay [1] of more than 100 µmol/L. Further, the IC50 (in assay [2]; in assay [3]; in assay [4]; in the assay with melanoma cell line G-361; in assay [5]; in assay [6] (K-562 cells)) was more than 50 µmol/L in each case.

Consider `Nc1nc2ncnc(NCc3cccc(Cl)c3)c2[nH]1` [Compound 91], for which the GI20 in assay [1] was more than 100 µmol/L. For the same compound, the IC50 (in assay [2]; in assay [3]; in assay [4]; in the assay with melanoma cell line G-361; in assay [5]; in assay [6] (K-562 cells)) was more than 50 µmol/L each time.

In turn, `Nc1nc2ncnc(NCc3ccc(Cl)cc3)c2[nH]1` [Compound 92] came in with a GI20 in assay [1] of more than 100 µmol/L. In addition, the IC50 (in assay [2]; in assay [3]; in assay [4]; with melanoma cell line G-361; in assay [5]; in assay [6] (K-562 cells)) was more than 50 µmol/L throughout.

In turn, `COc1ccccc1CNc1ncnc2nc(N)[nH]c12` [Compound 97] showed a GI20 in assay [1] of more than 100 µmol/L. The IC50 (in assay [2]; in assay [3]; in assay [4]; in the assay with melanoma cell line G-361; in assay [5]; in assay [6] (K-562 cells)) was more than 50 µmol/L each time.

With `COc1cccc(CNc2ncnc3nc(N)[nH]c23)c1` [Compound 98], in assay [1], the GI20 is more than 100 µmol/L. For the same compound, the IC50 (in assay [2]; in assay [3]; in assay [4]; in the assay on melanoma cell line G-361; in assay [5]; in assay [6] (K-562 cells)) was more than 50 µmol/L in each case.

In turn, `COc1ccc(CNc2ncnc3nc(N)[nH]c23)cc1` [Compound 99] displayed a GI20 in assay [1] of more than 100 µmol/L. For the same compound, the IC50 (in assay [2]; in assay [3]; in assay [4]; in the assay on melanoma cell line G-361; in assay [5]; in assay [6] (K-562 cells)) was more than 50 µmol/L in each case.

Turning to `Nc1nc2ncnc(NCc3cccc([N+](=O)[O-])c3)c2[nH]1` [Compound 100], the GI20 in assay [1] was more than 100 µmol/L. Besides, the IC50 (in assay [2]; in assay [3]; in assay [4]; in the assay on melanoma cell line G-361; in assay [5]; in assay [6] (K-562 cells)) was more than 50 µmol/L each time.

On to `Nc1nc2ncnc(NCc3ccc(Cl)c(Cl)c3)c2[nH]1` [Compound 101], for which the GI20 in assay [1] is more than 100 µmol/L. The IC50 (in assay [2]; in assay [3]; in assay [4]; with melanoma cell line G-361; in assay [5]; in assay [6] (K-562 cells)) was more than 50 µmol/L throughout.
